The assay concerns the target T1, TLR7 (Homo sapiens, UniProt Q9NYK1).
T1 construct: Fresh blood was collected from normal human donors; endogenous in cells; host or cells: human PBMCs from fresh donor blood
T1 sequence (Q9NYK1 27-1049): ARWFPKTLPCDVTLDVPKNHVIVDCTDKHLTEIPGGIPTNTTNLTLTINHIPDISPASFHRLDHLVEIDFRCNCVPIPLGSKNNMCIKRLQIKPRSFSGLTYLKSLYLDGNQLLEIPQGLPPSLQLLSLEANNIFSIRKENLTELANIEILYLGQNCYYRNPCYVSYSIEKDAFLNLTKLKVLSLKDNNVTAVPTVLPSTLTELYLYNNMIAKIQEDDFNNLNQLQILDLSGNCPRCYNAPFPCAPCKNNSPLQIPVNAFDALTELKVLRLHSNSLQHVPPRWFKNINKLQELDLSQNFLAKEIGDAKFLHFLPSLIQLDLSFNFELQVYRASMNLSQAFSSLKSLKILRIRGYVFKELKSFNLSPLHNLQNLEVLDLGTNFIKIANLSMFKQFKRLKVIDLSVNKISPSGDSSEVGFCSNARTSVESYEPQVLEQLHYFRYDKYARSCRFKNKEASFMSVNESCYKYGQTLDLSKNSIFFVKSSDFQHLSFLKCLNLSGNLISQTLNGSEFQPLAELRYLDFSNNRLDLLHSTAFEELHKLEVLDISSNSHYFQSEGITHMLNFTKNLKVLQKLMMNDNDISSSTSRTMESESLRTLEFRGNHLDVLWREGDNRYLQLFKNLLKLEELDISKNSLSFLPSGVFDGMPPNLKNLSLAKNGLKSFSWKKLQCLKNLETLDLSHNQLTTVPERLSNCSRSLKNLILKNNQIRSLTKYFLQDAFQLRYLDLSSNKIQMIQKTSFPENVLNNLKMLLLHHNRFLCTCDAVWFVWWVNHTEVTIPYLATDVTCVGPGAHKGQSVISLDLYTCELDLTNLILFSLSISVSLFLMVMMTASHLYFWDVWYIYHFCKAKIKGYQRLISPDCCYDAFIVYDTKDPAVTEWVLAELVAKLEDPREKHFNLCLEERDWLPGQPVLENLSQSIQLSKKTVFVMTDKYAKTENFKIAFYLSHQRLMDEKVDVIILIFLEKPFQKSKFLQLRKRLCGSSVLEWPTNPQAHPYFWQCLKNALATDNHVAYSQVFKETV
The assay can be described thus: huPBMC TLR7 Antagonist IFNα Assay. It counts as cell-based. The conditions noted are these: human PBMCs stimulated with ssRNA40 10 μg/mL (DOTAP), 14-16 hrs; IFNα2b AlphaLISA read-out. In outline:
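Human PBMCs from fresh donor blood (150,000 cells/well) stimulated 14–16 h at 37 °C with DOTAP-complexed ssRNA40 (final 1 μg/ml for TLR8, 10 μg/mL for TLR7) or ODN2216 (final 0.3 μM, TLR9), 0.25% DMSO, ten-point 1/3 compound dilutions. Supernatant IL-6 read by HTRF (TLR8); IFNα by IFNα2b AlphaLISA (TLR7/TLR9).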
Background: In Alpha technology, singlet oxygen from a donor bead excites a nearby acceptor bead.
In the case of `Cc1cc(N2CCc3c(c(C)nn3CC34CCC(N)(CC3)CC4)C2)c2cnn(C)c2n1` [Compound No. 1, 4-((5-(1,6-dimethyl-1H-pyrazolo[3,4-b]pyridin-4-yl)-3-methyl-4,5,6,7-tetrahydro-1H-pyrazolo[4,3-c]pyridin-1-yl)methyl)bicyclo[2.2.2]octan-1-amine], the IC50 stood at 25 nM.
In the case of `Cc1cc(N2CCc3c(c(C)nn3CC34CCC(N)(CC3)CC4)C2)c2cn[nH]c2n1` [Compound No. 2, 4-((3-methyl-5-(6-methyl-1H-pyrazolo[3,4-b]pyridin-4-yl)-4,5,6,7-tetrahydro-1H-pyrazolo[4,3-c]pyridin-1-yl)methyl)bicyclo[2.2.2]octan-1-amine] it was 38 nM.
As to `Cc1cc(N2CCc3c(c(C)nn3CC34CCC(N(C)C(=O)OC(C)(C)C)(CC3)CC4)C2)c2cnn(C)c2n1` [Compound No. 49, tert-butyl (4-((5-(1,6-dimethyl-1H-pyrazolo[3,4-b]pyridin-4-yl)-3-methyl-4,5,6,7-tetrahydro-1H-pyrazolo[4,3-c]pyridin-1-yl)methyl)bicyclo[2.2.2]octan-1-yl)(methyl)carbamate], the IC50 turned out to be 20 nM.
In the case of `CNC12CCC(Cn3nc(C)c4c3CCN(c3cc(C)nc5c3cnn5C)C4)(CC1)CC2` [Compound No. 50, 4-((5-(1,6-dimethyl-1H-pyrazolo[3,4-b]pyridin-4-yl)-3-methyl-4,5,6,7-tetrahydro-1H-pyrazolo[4,3-c]pyridin-1-yl)methyl)-N-methylbicyclo[2.2.2]octan-1-amine], the IC50 is 6 nM.
Regarding `Cc1cc(N2CCc3c(c(C)nn3CC34CCC(NC(=O)OC5(C)CC5)(CC3)CC4)C2)c2cnn(C)c2n1` [Compound No. 51, 1-methylcyclopropyl (4-((5-(1,6-dimethyl-1H-pyrazolo[3,4-b]pyridin-4-yl)-3-methyl-4,5,6,7-tetrahydro-1H-pyrazolo[4,3-c]pyridin-1-yl)methyl)bicyclo[2.2.2]octan-1-yl)carbamate], the half-inhibitory concentration (IC50) came out at 7 nM.
For the molecule `COc1ccc(Cn2ncc3c(N4CCc5c(c(C)nn5CC56CCC(N)(CC5)CC6)C4)cc(C)nc32)cc1` [Compound No. 53, 4-((5-(1-(4-methoxybenzyl)-6-methyl-1H-pyrazolo[3,4-b]pyridin-4-yl)-3-methyl-4,5,6,7-tetrahydro-1H-pyrazolo[4,3-c]pyridin-1-yl)methyl)bicyclo[2.2.2]octan-1-amine], the IC50 was determined as 843 nM.
The result for `Cc1cc(N2CCc3c(c(C)nn3CC34CCC(N5CCCC5)(CC3)CC4)C2)c2cnn(C)c2n1` [Compound No. 58, 5-(1,6-dimethyl-1H-pyrazolo[3,4-b]pyridin-4-yl)-3-methyl-1-((4-(pyrrolidin-1-yl)bicyclo[2.2.2]octan-1-yl)methyl)-4,5,6,7-tetrahydro-1H-pyrazolo[4,3-c]pyridine] reads 3 nM.
Take `Cc1cc(N2CCc3c(c(C)nn3CC34CCC(N5CCOCC5)(CC3)CC4)C2)c2cnn(C)c2n1` [Compound No. 59, 4-(4-((5-(1,6-dimethyl-1H-pyrazolo[3,4-b]pyridin-4-yl)-3-methyl-4,5,6,7-tetrahydro-1H-pyrazolo[4,3-c]pyridin-1-yl)methyl)bicyclo[2.2.2]octan-1-yl)morpholine]: the IC50 came out at 4 nM.
In the case of `COCCNC12CCC(Cn3nc(C)c4c3CCN(c3cc(C)nc5c3cnn5C)C4)(CC1)CC2` [Compound No. 69, 4-((5-(1,6-dimethyl-1H-pyrazolo[3,4-b]pyridin-4-yl)-3-methyl-4,5,6,7-tetrahydro-1H-pyrazolo[4,3-c]pyridin-1-yl)methyl)-N-(2-methoxyethyl)bicyclo[2.2.2]octan-1-amine] it was 9 nM.
The result for `Cc1cc(N2CCc3c(c(C)nn3CC34CCC(N(C)C5COC5)(CC3)CC4)C2)c2cnn(C)c2n1` [Compound No. 77, N-(4-((5-(1,6-dimethyl-1H-pyrazolo[3,4-b]pyridin-4-yl)-3-methyl-4,5,6,7-tetrahydro-1H-pyrazolo[4,3-c]pyridin-1-yl)methyl)bicyclo[2.2.2]octan-1-yl)-N-methyloxetan-3-amine] reads 10 nM.
For the molecule `Cc1nn(CC23CCC(N)(CC2)CC3)c2c1CN(c1ccnc(-c3ccc(C#N)cc3)c1)CC2` [Compound No. 84, 4-(4-(1-((4-aminobicyclo[2.2.2]octan-1-yl)methyl)-3-methyl-6,7-dihydro-1H-pyrazolo[4,3-c]pyridin-5(4H)-yl)pyridin-2-yl)benzonitrile], the IC50 worked out at 302 nM.
In the case of `Cc1cc(N2CCc3c(c(C)nn3CC34CCC(O)(CC3)CC4)C2)c2cnn(C)c2n1` [compound 46, 4-((5-(1,6-dimethyl-1H-pyrazolo[3,4-b]pyridin-4-yl)-3-methyl-4,5,6,7-tetrahydro-1H-pyrazolo[4,3-c]pyridin-1-yl)methyl)bicyclo[2.2.2]octan-1-ol] it was 56 nM; in that of `Cc1cc(N2CCc3nn(CC45CC(N)(C4)C5)c(C)c3C2)c2cnn(C)c2n1` [compound 52, 3-((5-(1,6-dimethyl-1H-pyrazolo[3,4-b]pyridin-4-yl)-3-methyl-4,5,6,7-tetrahydro-2H-pyrazolo[4,3-c]pyridin-2-yl)methyl)bicyclo[1.1.1]pentan-1-amine], 304 nM; in that of `Cc1cc(N2CCc3c(c(C)nn3CC34CCC(NC5CCC5)(CC3)CC4)C2)c2cnn(C)c2n1` [compound 54, N-cyclobutyl-4-((5-(1,6-dimethyl-1H-pyrazolo[3,4-b]pyridin-4-yl)-3-methyl-4,5,6,7-tetrahydro-1H-pyrazolo[4,3-c]pyridin-1-yl)methyl)bicyclo[2.2.2]octan-1-amine], 4 nM.
With `Cc1cc(N2CCc3c(c(C)nn3CC34CCC(NC(C)C)(CC3)CC4)C2)c2cnn(C)c2n1` [compound 55, 4-((5-(1,6-dimethyl-1H-pyrazolo[3,4-b]pyridin-4-yl)-3-methyl-4,5,6,7-tetrahydro-1H-pyrazolo[4,3-c]pyridin-1-yl)methyl)-N-isopropylbicyclo[2.2.]octan-1-amine], the IC50 came to 5 nM.
In the case of `Cc1cc(N2CCc3c(c(C)nn3CC34CCC(NC(C)CO)(CC3)CC4)C2)c2cnn(C)c2n1` (stereo not drawn) [compound 56, 2-((4-((5-(1,6-dimethyl-1H-pyrazolo[3,4-b]pyridin-4-yl)-3-methyl-4,5,6,7-tetrahydro-1H-pyrazolo[4,3-c]pyridin-1-yl)methyl)bicyclo[2.2.2]octan-1-yl)amino)propan-1-ol] it was 7 nM; in that of `CCNC12CCC(Cn3nc(C)c4c3CCN(c3cc(C)nc5c3cnn5C)C4)(CC1)CC2` [compound 57, 4-((5-(1,6-dimethyl-1H-pyrazolo[3,4-b]pyridin-4-yl)-3-methyl-4,5,6,7-tetrahydro-1H-pyrazolo[4,3-c]pyridin-1-yl)methyl)-N-ethylbicyclo[2.2.]octan-1-amine], 7 nM; in that of `Cc1cc(N2CCc3c(c(C)nn3CC34CCC(N5CCC5)(CC3)CC4)C2)c2cnn(C)c2n1` [compound 64, 1-((4-(azetidin-1-yl)bicyclo[2.2.2]octan-1-yl)methyl)-5-(1,6-dimethyl-1H-pyrazolo[3,4-b]pyridin-4-yl)-3-methyl-4,5,6,7-tetrahydro-1H-pyrazolo[4,3-c]pyridine], 4 nM.
In the case of `CCOCCNC12CCC(Cn3nc(C)c4c3CCN(c3cc(C)nc5c3cnn5C)C4)(CC1)CC2` [compound 71, 4-((5-(1,6-dimethyl-1H-pyrazolo[3,4-b]pyridin-4-yl)-3-methyl-4,5,6,7-tetrahydro-1H-pyrazolo[4,3-c]pyridin-1-yl)methyl)-N-(2-ethoxyethyl)bicyclo[2.2.2]octan-1-amine] it was 5 nM; in that of `CCOCCN(CCOCC)C12CCC(Cn3nc(C)c4c3CCN(c3cc(C)nc5c3cnn5C)C4)(CC1)CC2` [compound 72, 4-((5-(1,6-dimethyl-1H-pyrazolo[3,4-b]pyridin-4-yl)-3-methyl-4,5,6,7-tetrahydro-1H-pyrazolo[4,3-c]pyridin-1-yl)methyl)-N,N-bis(2-ethoxyethyl)bicyclo[2.2.2]octan-1-amine], 37 nM.
In the case of `Cc1cc(N2CCc3c(c(C)nn3CC34CCC(N5C[C@@H](O)[C@@H](O)C5)(CC3)CC4)C2)c2cnn(C)c2n1` [compound 74, (3S,4R)-1-(4-((5-(1,6-dimethyl-1H-pyrazolo[3,4-b]pyridin-4-yl)-3-methyl-4,5,6,7-tetrahydro-1H-pyrazolo[4,3-c]pyridin-1-yl)methyl)bicyclo[2.2.2]octan-1-yl)pyrrolidine-3,4-diol] it was 7 nM.

By IC50 is commonly meant the concentration needed to halve the response being measured.

Source of the values: patent US20240376099A1, “COMPOUNDS AND COMPOSITIONS AS INHIBITORS OF ENDOSOMAL TOLL-LIKE RECEPTORS” (Novartis AG, priority 2016, published 2024).
